In PubChem BioAssay (NCI) one finds TGI and GI50 data, which are given here for 6 compounds.

Assay in all cases: NCI anticancer screen, dose series, 48 h
The subject of test [1] is CAKI-1 renal.
Test [2] has as its system COLO 205 colon.
Test [3] has as its system K-562 leukemia.
For test [4], the system named is MDA-MB-231 breast.
The test system of test [5] is NCI-H226 lung.
For test [6], the system named is OVCAR-4 ovarian.
The test system of test [7] is RPMI-8226 leukemia.
The subject of test [8] is SR leukemia.
The subject of test [9] is TK-10 renal.
The test system of test [10] is UO-31 renal.

Each structure is given as a SMILES string.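 Step 1: Grow cells in 96-well plates. Step 2: Expose to compound for 48 hours at 5 concentrations. Step 3: Interpolate endpoints linearly; if unreached, use highest concentration. Abbreviation: GI50, concentration required for 50% inhibition of growth. TGI: total growth inhibition.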 *1 amine or outer side, *2 acyl side, *3 side chain or, on linkers, in order; H or OH if unused. Where a SMILES comes first, the peptide text is derived from it. Bridges are numbered along the chain shown (N, C = ends). [ ]: non-standard residue; d: D form. The star is where a group is joined. X38 = CC[C@H](C)[C@@H](N[*:1])[C@@H](O)CC(=O)[*:2]; NMeY = CN[C@@H](Cc1ccc(O)cc1)C(=O)O; dNMeL = CN[C@H](CC(C)C)C(=O)O; Hiv = CC(C)[C@H](O)C(=O)O; Pyruvoyl = CC(=O)C(=O)*

Consider `CC[C@H](C)[C@H]1NC(=O)[C@@H](NC(=O)[C@@H](CC(C)C)N(C)C(=O)[C@@H]2CCCN2C(=O)C(C)=O)[C@@H](C)OC(=O)[C@H](Cc2ccc(OC)cc2)N(C)C(=O)[C@@H]2CCCN2C(=O)[C@H](CC(C)C)NC(=O)[C@H](C(C)C)OC(=O)C[C@@H]1O` (Pyruvoyl-P[dNMeL]T[X38][Hiv]LP[NMeY](Me); ester 3-C), for which the TGI in test [1] was 1.22 µM; in test [2], 0.00621 µM; in test [3], 0.104 µM; in test [4], 0.112 µM; in test [5] it was 0.0331 µM; in test [6], 0.351 µM. Moreover, the TGI is 0.0465 µM in test [7], 0.607 µM in [8], 0.0643 µM in [9] and 0.137 µM in [10].
As for `Fc1cc(C2=C[C@H](c3ccc(Cl)cc3)NC(=S)N2)c(Cl)cc1Cl`, the TGI in [1] is above 100 µM; in test [2] it was above 100 µM; in test [3] it was above 100 µM; in [4], 88.7 µM; in test [5] it was above 100 µM; in test [6], above 100 µM. For the same compound, the TGI in test [7] was 56.2 µM; in test [8], above 100 µM; in test [9], above 100 µM; in test [10], above 100 µM.
As for `COc1ccc(/C=C(\Cl)c2ccc(OC)c(OC)c2)cc1OC`, the TGI in test [1], in [2], in [3], in [4], in test [5] and in test [6] was above 100 µM throughout. In addition, the TGI in test [7], in test [8], in test [9] and in [10] was above 100 µM in each case.
As for `COc1ccc2c(c1)CC[C@@H]1[C@@H]2CC[C@]2(C)C(=O)C3(CCCCC3)C[C@@H]12`, the GI50 in test [1] was 31.9 µM; in test [2] it was above 100 µM; in test [3], above 100 µM; in test [4], above 100 µM; in test [5] it was above 100 µM; in [6], above 100 µM. Moreover, the GI50 in [7], in test [8], in test [9] and in test [10] was above 100 µM each time. Also, the TGI in test [1], in [2], in test [3], in test [4], in test [5] and in test [6] was above 100 µM throughout. For the same compound, the TGI in test [7], in [8], in test [9] and in test [10] was above 100 µM throughout.
Take `NCCCNCCCNCCCN`: the TGI in test [1] was above 100 µM; in test [2] it was above 100 µM; in test [3] it was 72.9 µM; in [4], above 100 µM; in test [5] it was above 100 µM; in test [6], above 100 µM. For the same compound, the TGI in test [7] is 41.1 µM; in test [8] it was 44.7 µM; in test [9] it was above 100 µM; in test [10], above 100 µM.
As for `C[C@H]1[C@H](C)N(Cc2ccccc2)P(=O)(C(O)/C=C/c2ccccc2)N1Cc1ccccc1` (stereo not given in full), the TGI is above 25 µM in test [1]; 17.4 µM in test [2]; above 25 µM in test [3]; 15.1 µM in test [4]; 16.9 µM in [5]; 15 µM in test [6]. Also, the TGI worked out at 15.6 µM in test [7], 20.5 µM in test [8], 24.1 µM in [9] and 10.7 µM in test [10].
